Measurements: article PMC6102549, “Synthesis and Evaluation of C15 Triene Urushiol Derivatives as Potential Anticancer Agents and HDAC2 Inhibitor” (Molecules : A Journal of Synthetic Chemistry and Natural …, 2018)

Legend:
HepG2 cells = assay: MTT assay, inhibition of proliferation of HepG2 cells; format: cell-based, human; settings: for IC50: in vitro, 72 h
Experimental: (§1) As shown in Figure 1 and Table 1, compounds 1–16 were evaluated for their inhibitory effects on the proliferation of HepG2 and LO2 cells by MTT assay. […] It provided the experimental basis for the subsequent synthesis of attenuating and improving urushiol derivatives.
(§2) Detection of cell proliferation by MTT
(§3) MTT assay was used to determine the inhibitory effect of the sample on the proliferation of HepG2 cells. The tumor cells of logarithmic growth stage were inoculated with 3.5 * 103 / well in 96 well culture plate. 0.2 ml/pore system was cultured for 72 h with different concentrations of samples. Then 20μL(final concentration 0.5 mg / mL) of MTT were added to each pore for 4 h. The supernatant was carefully adsorbed, DMSO 0.15 mL was added to each pore, and oscillatory mixing was carried out. The absorbance (A) value at 490 nm wavelength was measured by enzyme labeling instrument. The inhibition rate of cell proliferation was calculated as follows: [(A value of negative control group-A value of blank group)-(A value of experimental group A value of blank group)] / (negative pair group A-A value of blank group) × 100.Statistical method. The statistical analysis was carried out by SPSS 17.0 statistical software. The measured data were described by x ±s, and the mean of the two samples was compared with t test (P < 0. 05).
(§4) Materials and methods: Main reagents and instruments […]
(§5) Full-range rainbow […]
(§6) The HepG2 cells were cultured in a saturated humidity incubator with 90% […]
(§7) Jiangsu Kaiji Biotechnology Co., Ltd. Main reagents and consumables Cell culture bottle […]
(§8) Cell proliferation measured by MTT
(§9) 1) the cells were digested and counted, the cell suspension was prepared by 3 x 10^4 /ml, and 100 micron L cell suspension was added to each hole in the 96 hole cell culture plate.
(§10) 2) 96 hole cell culture plate was placed in 37, 5%, CO2 culture box for 24 hours.
(§11) 3) use the medium to dilute the drug to the desired working fluid concentration, add 100 micron l per hole to the corresponding drug medium, and establish a negative control group and a positive control group (paclitaxel, 20ug/ml).
(§12) 4) 96 hole cell culture plate was placed at 37 ℃ and 5% CO2 incubator for 72 hours.
(§13) 5) 96 hole board for MTT staining, lambda =490nm, OD value determination; a. 20 μL MTT (5mg/ml) per hole was added to the culture box for 4 hours. b. discarding the supernatant, adding 150 μL DMSO for each hole, and gently mixing the […]
(§14) c. lambda =490nm, ELISA od readout per hole, the inhibition rate was calculated.
(§15) 6) calculate the inhibition rate of each group.The inhibition rate (%) = (negative control group OD value of experimental group / OD) negative control group OD x 100% […]
(§16) 7 check the machine and record the red fluorescence at the excitation wavelength of 488nm.
(§17) Detection of apoptosis by Annexin-V FITC/PI double staining
(§18) (1) inoculate the logarithmic growth cells into the six-hole plate. The next day, after the cells are adhered to the wall, according to the group . The culture medium containing medicine was added and the negative control group was set up at the same time
(§19) (2) after 72 hours of treatment, the cells were digested with 0.25% trypsin (excluding […]
(§20) (3) 5 × 10 ~ 5 cells were collected by PBS washing cells twice (centrifugation 2000rpm for 5

LO2 cells = assay: MTT assay, toxic effect on normal liver cells LO2; format: cell-based; settings: Homo sapiens, L02, 72 h, in vitro
Experimental: as §1, §2, §3, §4, §5, §6, §7, §8, §9, §10, §11, §12, §13, §14, §15, §16, §17, §18, §19, §20

IC50 (HepG2 cells; Homo sapiens, HepG2, 72 h) | IC50 (HepG2 cells) | SMILES | IC50 (LO2 cells) | inhibitory activity on HepG2 cells proliferation (in words) (HepG2 cells)
> 200 µM | – | C#CCOc1c(O)cccc1CCCCCCC/C=C\C/C=C/C=C\C [Compound 3] | > 200 µM | –
78.7 µM | – | C/C=C\C=C\C/C=C\CCCCCCCc1ccc2c(C)cc(=O)oc2c1OB(O)c1ccccc1 [Compound 14] | > 200 µM | –
– | 15.3 µM | C/C=C\C=C\C/C=C\CCCCCCCc1cccc2c1OB(c1ccccc1)O2 [Compound 4] | 181 µM | strong
89.7 µM | – | C/C=C\C=C\C/C=C\CCCCCCCc1cccc2c1OC(C)(C(C)Br)O2 (centres unmarked) [Compound 7] | > 200 µM | –
15 µM | – | C/C=C\C=C\C/C=C\CCCCCCCc1cccc(O)c1NS(C)(=O)=O [Compound 9] | 121 µM | strong
> 200 µM | – | C/C=C\C=C\C/C=C\CCCCCCCc1cccc2c1OB(c1ccnc(F)c1)O2 [Compound 6] | > 200 µM | –
